Values of other authors in PMC6277767, “Broad and Region-Specific Impacts of the Synthetic Cannabinoid CP 55,940 in Adolescent and Adult Female Mouse Brains” (Frontiers in Molecular Neuroscience, 2018).

Parameters: method as in earlier work
Conditions: ref Ferrari et al., 2000; Lopez et al., 2009; Gorzalka et al., 2010; cited from earlier work

SMILES: CCCCCCC(C)(C)c1ccc([C@@H]2C[C@H](O)CC[C@H]2CCCO)c(O)c1 [CP 55,940]
- doses attenuating social motivation: over 0.4 mg/kg
